Measured values taken from ChEMBL document CHEMBL1201862, “PubChem BioAssay data set” (2004).
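The compound was tested at five concentrations on cells cultured in 96-well plates, with a 48-hour exposure period. GI50: concentration for 50% inhibition of growth.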 Active and inactive are the calls of the source. Rule as the data show it: active = GI50 up to about 1.1 µM and inactive = higher.

Columns and labels:
Assay in all cases: growth of human tumour cells (NCI), 48 h
A498 = system: A498
A549 = system: A549
CAKI-1 = system: CAKI-1
HCC 2998 = system: HCC 2998
HCT-15 = system: HCT-15
HOP-62 = system: HOP-62
IGROV-1 = system: IGROV-1
LOX IMVI = system: LOX IMVI
MDA-MB-231 = system: MDA-MB-231
Malme-3M = system: Malme-3M
NCI-H460 = system: NCI-H460
NCI-H522 = system: NCI-H522
OVCAR-3 = system: OVCAR-3
RPMI-8226 = system: RPMI-8226
SF-268 = system: SF-268
SK-OV-3 = system: SK-OV-3
SN12C = system: SN12C
SR = system: SR
U-251 = system: U-251
K562 = system: K562

Row | Structure (SMILES) | GI50 (A498) | GI50 (A549) | GI50 (CAKI-1) | GI50 (HCC 2998) | GI50 (HCT-15) | GI50 (HOP-62) | GI50 (IGROV-1) | GI50 (LOX IMVI) | GI50 (MDA-MB-231) | GI50 (Malme-3M) | GI50 (NCI-H460) | GI50 (NCI-H522) | GI50 (OVCAR-3) | GI50 (RPMI-8226) | GI50 (SF-268) | GI50 (SK-OV-3) | GI50 (SN12C) | GI50 (SR) | GI50 (U-251) | GI50 (K562)
1 | COc1ccc2c(c1)[C@@]13CCN4CC5=CCO[C@H]6CC(=O)N2[C@H]1[C@H]6[C@H]5C[C@H]43 | 69.2 µM (inactive) | > 100 µM (inactive) | > 100 µM (inactive) | > 100 µM (inactive) | > 100 µM | > 100 µM (inactive) | 34.9 µM (inactive) | > 100 µM (inactive) | > 100 µM (inactive) | 90.4 µM (inactive) | > 100 µM (inactive) | 72.3 µM (inactive) | > 100 µM (inactive) | > 100 µM (inactive) | > 100 µM (inactive) | > 100 µM (inactive) | > 100 µM (inactive) | 27.5 µM (inactive) | > 100 µM (inactive) | 
2 | O=[N+]([O-])C(=C(Nc1ccccc1)Nc1ccccc1)/C(Cl)=C(\Cl)Br | 19.1 µM (inactive) | 20.7 µM (inactive) |  | 17.1 µM (inactive) | 11.9 µM | 22 µM (inactive) |  | 3.27 µM (inactive) | 15.6 µM (inactive) | 16.5 µM (inactive) | 21.3 µM (inactive) | 2.51 µM (inactive) | 5.18 µM (inactive) | 3.61 µM (inactive) | 16.8 µM (inactive) |  | 13.7 µM (inactive) | 5.01 µM (inactive) | 15 µM (inactive) | 2.92 µM (inactive)
3 | CCOC(=O)Nc1nc(-c2ccccc2)c(C)s1 | > 100 µM (inactive) | > 100 µM (inactive) | > 100 µM (inactive) | > 100 µM (inactive) | 40.9 µM | > 100 µM (inactive) | 44.2 µM (inactive) | > 100 µM (inactive) | > 100 µM (inactive) | > 100 µM (inactive) | 64 µM (inactive) | 28 µM (inactive) | 98.9 µM (inactive) | > 100 µM (inactive) | > 100 µM (inactive) | > 100 µM (inactive) | > 100 µM (inactive) | 49.9 µM (inactive) | > 100 µM (inactive) | 18.3 µM (inactive)
4 | N#C/C(C(=O)NCc1ccccc1)=C(/N)N1CCCC1 | 94.8 µM (inactive) | > 100 µM (inactive) | 39.6 µM (inactive) | > 100 µM (inactive) | > 100 µM | > 100 µM (inactive) | > 100 µM (inactive) | > 100 µM (inactive) | > 100 µM (inactive) | > 100 µM (inactive) | > 100 µM (inactive) | > 100 µM (inactive) | > 100 µM (inactive) | > 100 µM (inactive) | > 100 µM (inactive) | > 100 µM (inactive) | > 100 µM (inactive) | > 100 µM (inactive) | > 100 µM (inactive) | > 100 µM (inactive)
5 | O=C(O)CNC(=O)c1ccc(-c2ccccc2)cc1 | > 100 µM (inactive) | > 100 µM (inactive) | > 100 µM (inactive) | > 100 µM (inactive) | > 100 µM | > 100 µM (inactive) | > 100 µM (inactive) | > 100 µM (inactive) | > 100 µM (inactive) | > 100 µM (inactive) | > 100 µM (inactive) | > 100 µM (inactive) | > 100 µM (inactive) | > 100 µM (inactive) | > 100 µM (inactive) | > 100 µM (inactive) | > 100 µM (inactive) | > 100 µM (inactive) | > 100 µM (inactive) | > 100 µM (inactive)
6 | COc1ccc2nc(-c3ccccc3)c(=O)[nH]c2c1 | > 100 µM (inactive) | > 100 µM (inactive) | > 100 µM (inactive) | > 100 µM (inactive) | > 100 µM | > 100 µM (inactive) | > 100 µM (inactive) | > 100 µM (inactive) | > 100 µM (inactive) | > 100 µM (inactive) | > 100 µM (inactive) | > 100 µM (inactive) | > 100 µM (inactive) | > 100 µM (inactive) | > 100 µM (inactive) |  | > 100 µM (inactive) | > 100 µM (inactive) |  | > 100 µM (inactive)
7 | Cc1cc(Cl)ccc1C(=O)c1ccc2ccccc2c1C(=O)O | > 100 µM (inactive) | > 100 µM (inactive) | > 100 µM (inactive) | 71.6 µM (inactive) | > 100 µM |  | > 100 µM (inactive) |  | > 100 µM (inactive) | > 100 µM (inactive) | > 100 µM (inactive) | > 100 µM (inactive) | > 100 µM (inactive) | > 100 µM (inactive) | > 100 µM (inactive) |  |  | > 100 µM (inactive) | > 100 µM (inactive) | > 100 µM (inactive)
8 | CC(=O)OCC1OC(SC2=N/C(=C\c3cc4c(=O)c5ccccc5sc4s3)C(=O)N2c2ccccc2)C(OC(C)=O)C(OC(C)=O)C1OC(C)=O (centres undefined) | > 100 µM (inactive) |  | > 100 µM (inactive) | > 100 µM (inactive) | > 100 µM | > 100 µM (inactive) | > 100 µM (inactive) | 55.1 µM (inactive) | 58.2 µM (inactive) | > 100 µM (inactive) | 83.2 µM (inactive) | > 100 µM (inactive) | > 100 µM (inactive) | 50.9 µM (inactive) | > 100 µM (inactive) |  | > 100 µM (inactive) | 42.2 µM (inactive) | 23.9 µM (inactive) | 53.1 µM (inactive)
9 | COc1ccc2c(c1)OCC1Cc3cccc(OC)c3OC21 (centres undefined) | > 100 µM (inactive) | 70 µM (inactive) | > 100 µM (inactive) | 93.3 µM (inactive) | 48 µM | > 100 µM (inactive) | 66.7 µM (inactive) | 45.5 µM (inactive) | 60.7 µM (inactive) | 70.8 µM (inactive) |  | 55.6 µM (inactive) | 51.2 µM (inactive) | 36.9 µM (inactive) | > 100 µM (inactive) | > 100 µM (inactive) | > 100 µM (inactive) | 59.7 µM (inactive) | > 100 µM (inactive) | 
10 | CCCCCCC(CCl)c1sc(-c2csc(CCNC(=O)OC(C)(C)C)n2)nc1C(=O)OC (centres undefined) | 28.8 µM (inactive) | 26.4 µM (inactive) | 29 µM (inactive) | 22.7 µM (inactive) | 14.1 µM | 39.8 µM (inactive) | 30.2 µM (inactive) | 13.2 µM (inactive) | 26.9 µM (inactive) |  | 18.2 µM (inactive) | 22 µM (inactive) | 21.9 µM (inactive) | 9.68 µM (inactive) | 20.3 µM (inactive) | 19.1 µM (inactive) | 19.2 µM (inactive) | 3.94 µM (inactive) | 16.2 µM (inactive) | 13.5 µM (inactive)
11 | O=c1oc2cccnc2n1CCN1CCN(c2ccc(Oc3ccccc3)cc2)CC1 | 40.9 µM (inactive) | > 100 µM (inactive) | > 100 µM (inactive) | 52.8 µM (inactive) | 90.8 µM | > 100 µM (inactive) | > 100 µM (inactive) | > 100 µM (inactive) | > 100 µM (inactive) | 41.6 µM (inactive) | 77.8 µM (inactive) | 31.6 µM (inactive) | 25.5 µM (inactive) | 8.47 µM (inactive) | > 100 µM (inactive) | > 100 µM (inactive) |  | 8.71 µM (inactive) | 56.9 µM (inactive) | 12.4 µM (inactive)
12 | CC1CC(C)CC(NC2=NCCO2)C1 (centres undefined) | > 100 µM (inactive) | > 100 µM (inactive) | > 100 µM (inactive) | > 100 µM (inactive) | > 100 µM | > 100 µM (inactive) | > 100 µM (inactive) | > 100 µM (inactive) | > 100 µM (inactive) | > 100 µM (inactive) | > 100 µM (inactive) | > 100 µM (inactive) | > 100 µM (inactive) | > 100 µM (inactive) | > 100 µM (inactive) |  | > 100 µM (inactive) | > 100 µM (inactive) | > 100 µM (inactive) | > 100 µM (inactive)
13 | COC(=O)[C@@H]1[C@H](OC(C)=O)CCC2[C@@]3(C[C@@H](c4ccoc4)O[C@@H]3OC)[C@H](C)CC[C@]21C(=O)OC (some centres undefined) | > 25 µM (inactive) | > 25 µM (inactive) | > 25 µM (inactive) | > 25 µM (inactive) | > 25 µM |  | > 25 µM (inactive) | > 25 µM (inactive) | > 25 µM (inactive) |  | > 25 µM (inactive) | > 25 µM (inactive) | > 25 µM (inactive) | > 25 µM (inactive) | > 25 µM (inactive) | > 25 µM (inactive) | > 25 µM (inactive) | > 25 µM (inactive) | > 25 µM (inactive) | > 25 µM (inactive)
14 | COc1cc2cc(C(=O)N3CC(CCl)c4ccc([N+](C)(C)Cc5ccc([N+](=O)[O-])cc5)cc43)[nH]c2c(OC)c1OC (centres undefined) | 1.76 µM (inactive) | 1.8 µM (inactive) | 2.05 µM (inactive) | 1.41 µM (inactive) | 3.2 µM | 4.92 µM (inactive) | 1.97 µM (inactive) |  | 7.55 µM (inactive) | 2.48 µM (inactive) | 1.52 µM (inactive) | 0.552 µM (active) | 1.96 µM (inactive) | 2.01 µM (inactive) | 3.39 µM (inactive) | 2.28 µM (inactive) | 4.55 µM (inactive) | 0.363 µM (active) | 2.71 µM (inactive) | 1.92 µM (inactive)
15 | O=C(Nc1ccc(Br)cc1)c1c(-c2ccccc2)c2ccc(O)cc2oc1=O | > 10 µM (inactive) |  | > 10 µM (inactive) | > 10 µM (inactive) | > 10 µM | > 10 µM (inactive) | > 10 µM (inactive) | > 10 µM (inactive) | > 10 µM (inactive) | > 10 µM (inactive) | > 10 µM (inactive) | > 10 µM (inactive) | > 10 µM (inactive) | > 10 µM (inactive) | > 10 µM (inactive) | > 10 µM (inactive) | > 10 µM (inactive) | > 10 µM (inactive) | > 10 µM (inactive) | > 10 µM (inactive)
